# Experimental data published in PubChem BioAssay AID2060351 (Molecular Pharmacology Branch, DTP, NCI, 2025).
# System: 521955-158-R7-J2-PDC spheroids, viability % test/control
# Assay: Anticancer human tumor 521955-158-R7-J2-PDC patient-derived pancreatic carcinoma cell line growth inhibition [TAK]
# Conditions: spheroids with HUVEC and MSC; for IC50: curve of first compound; for viability, T/C: stronger effect = lower value
# Outline: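 Tumor cells were grown as spheroids with HUVEC and hMSC (60:25:15) and treated with targeted agents combined with TAK-243 or ipatasertib. Drugs were tested in half-log steps down from near the clinical Cmax, or from 10 microM where Cmax was unknown.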
# [1] = second compound 0.3 µM, first compound 0.0316 µM
# [2] = second compound 0.3 µM, first compound 0.1 µM
# [3] = second compound 0.3 µM, first compound 0.316 µM
# [4] = second compound 0.3 µM, first compound 1 µM
# [5] = second compound 0.3 µM, first compound 3.16 µM
# [6] = second compound 0.3 µM, first compound 10 µM
# [7] = second compound 0.949 µM, first compound 0.0316 µM
# [8] = second compound 0.949 µM, first compound 0.1 µM
# [9] = second compound 0.949 µM, first compound 0.316 µM
# [10] = second compound 0.949 µM, first compound 1 µM
# [11] = second compound 0.949 µM, first compound 3.16 µM
# [12] = second compound 0.949 µM, first compound 10 µM
# [13] = second compound 3 µM, first compound 0.0316 µM
# [14] = second compound 3 µM, first compound 0.1 µM
# [15] = second compound 3 µM, first compound 0.316 µM
# [16] = second compound 3 µM, first compound 1 µM
# [17] = second compound 3 µM, first compound 3.16 µM
# [18] = second compound 3 µM, first compound 10 µM
# [19] = second compound 9.49 µM, first compound 0.0316 µM
# [20] = second compound 9.49 µM, first compound 0.1 µM
# [21] = second compound 9.49 µM, first compound 0.316 µM
# [22] = second compound 9.49 µM, first compound 1 µM
# [23] = second compound 9.49 µM, first compound 3.16 µM
# [24] = second compound 9.49 µM, first compound 10 µM
# [25] = second compound 30 µM, first compound 0.0316 µM
# [26] = second compound 30 µM, first compound 0.1 µM
# [27] = second compound 30 µM, first compound 0.316 µM
# [28] = second compound 30 µM, first compound 1 µM
# [29] = second compound 30 µM, first compound 3.16 µM
# [30] = second compound 30 µM, first compound 10 µM
# [31] = second compound 0.3 µM, first compound 0.000316 µM
# [32] = second compound 0.3 µM, first compound 0.001 µM
# [33] = second compound 0.3 µM, first compound 0.00316 µM
# [34] = second compound 0.3 µM, first compound 0.01 µM
# [35] = second compound 0.949 µM, first compound 0.000316 µM
# [36] = second compound 0.949 µM, first compound 0.001 µM
# [37] = second compound 0.949 µM, first compound 0.00316 µM
# [38] = second compound 0.949 µM, first compound 0.01 µM
# [39] = second compound 3 µM, first compound 0.000316 µM
# [40] = second compound 3 µM, first compound 0.001 µM
# [41] = second compound 3 µM, first compound 0.00316 µM
# [42] = second compound 3 µM, first compound 0.01 µM
# [43] = second compound 9.49 µM, first compound 0.000316 µM
# [44] = second compound 9.49 µM, first compound 0.001 µM
# [45] = second compound 9.49 µM, first compound 0.00316 µM
# [46] = second compound 9.49 µM, first compound 0.01 µM
# [47] = second compound 30 µM, first compound 0.000316 µM
# [48] = second compound 30 µM, first compound 0.001 µM
# [49] = second compound 30 µM, first compound 0.00316 µM
# [50] = second compound 30 µM, first compound 0.01 µM
# 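Also: spheroids exposed to compound for 7 days before readout.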
# 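For viability, T/C in this document: 100% = DMSO vehicle control wells.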
smiles,measurement,setting,value
CC(C)(C)c1nc(-c2cccc(NS(=O)(=O)c3c(F)cccc3F)c2F)c(-c2ccnc(N)n2)s1 + CC(C)NCC(C(=O)N1CCN(c2ncnc3c2C(C)CC3O)CC1)c1ccc(Cl)cc1,IC50,second compound 0.3 µM,> 10000 nM
same,IC50,second compound 0.949 µM,> 10000 nM
same,IC50,second compound 3 µM,> 10000 nM
same,IC50,second compound 9.49 µM,> 10000 nM
same,IC50,second compound 30 µM,> 10000 nM
same,"viability, T/C",[1],111%
same,"viability, T/C",[2],94.3%
same,"viability, T/C",[3],106%
same,"viability, T/C",[4],131%
same,"viability, T/C",[5],101%
same,"viability, T/C",[6],74.2%
same,"viability, T/C",[7],89.3%
same,"viability, T/C",[8],102%
same,"viability, T/C",[9],90.4%
same,"viability, T/C",[10],103%
same,"viability, T/C",[11],92.7%
same,"viability, T/C",[12],60.3%
same,"viability, T/C",[13],95%
same,"viability, T/C",[14],115%
same,"viability, T/C",[15],108%
same,"viability, T/C",[16],130%
same,"viability, T/C",[17],101%
same,"viability, T/C",[18],71.5%
same,"viability, T/C",[19],127%
same,"viability, T/C",[20],115%
same,"viability, T/C",[21],117%
same,"viability, T/C",[22],119%
same,"viability, T/C",[23],105%
same,"viability, T/C",[24],83.7%
same,"viability, T/C",[25],111%
same,"viability, T/C",[26],130%
same,"viability, T/C",[27],138%
same,"viability, T/C",[28],136%
same,"viability, T/C",[29],130%
same,"viability, T/C",[30],97.2%
CC(C)CC(NC(=O)CNC(=O)c1cc(Cl)ccc1Cl)B1OC(=O)CC(CC(=O)O)(C(=O)O)O1 (stereo not given) + CC(C)NCC(C(=O)N1CCN(c2ncnc3c2C(C)CC3O)CC1)c1ccc(Cl)cc1,IC50,second compound 0.3 µM,38.8 nM
same,IC50,second compound 0.949 µM,47.4 nM
same,IC50,second compound 3 µM,42 nM
same,IC50,second compound 9.49 µM,35 nM
same,IC50,second compound 30 µM,33.3 nM
same,"viability, T/C",[31],103%
same,"viability, T/C",[32],71.9%
same,"viability, T/C",[33],96.8%
same,"viability, T/C",[34],104%
same,"viability, T/C",[1],60.1%
same,"viability, T/C",[2],3.16%
same,"viability, T/C",[35],119%
same,"viability, T/C",[36],92.2%
same,"viability, T/C",[37],87.6%
same,"viability, T/C",[38],103%
same,"viability, T/C",[7],74.7%
same,"viability, T/C",[8],4.69%
same,"viability, T/C",[39],85.6%
same,"viability, T/C",[40],90.8%
same,"viability, T/C",[41],109%
same,"viability, T/C",[42],85.9%
same,"viability, T/C",[13],64.8%
same,"viability, T/C",[14],5.79%
same,"viability, T/C",[43],116%
same,"viability, T/C",[44],98.8%
same,"viability, T/C",[45],82.7%
same,"viability, T/C",[46],86.4%
same,"viability, T/C",[19],58.1%
same,"viability, T/C",[20],4.1%
same,"viability, T/C",[47],95.1%
same,"viability, T/C",[48],105%
same,"viability, T/C",[49],88.7%
same,"viability, T/C",[50],80.9%
same,"viability, T/C",[25],52.4%
same,"viability, T/C",[26],2.42%
CC(C)n1nc(-c2ccc3oc(N)nc3c2)c2c(N)ncnc21 + CC(C)NCC(C(=O)N1CCN(c2ncnc3c2C(C)CC3O)CC1)c1ccc(Cl)cc1,IC50,second compound 0.3 µM,> 100 nM
same,IC50,second compound 0.949 µM,> 100 nM
same,IC50,second compound 3 µM,> 100 nM
same,IC50,second compound 9.49 µM,> 100 nM
same,IC50,second compound 30 µM,> 100 nM
same,"viability, T/C",[31],112%
same,"viability, T/C",[32],74.7%
same,"viability, T/C",[33],78.8%
same,"viability, T/C",[34],134%
same,"viability, T/C",[1],98.1%
same,"viability, T/C",[2],69%
same,"viability, T/C",[35],118%
same,"viability, T/C",[36],84.9%
same,"viability, T/C",[37],100%
same,"viability, T/C",[38],75.3%
same,"viability, T/C",[7],99%
same,"viability, T/C",[8],100%
same,"viability, T/C",[39],91.3%
same,"viability, T/C",[40],105%
same,"viability, T/C",[41],86.8%
same,"viability, T/C",[42],94.3%
same,"viability, T/C",[13],132%
same,"viability, T/C",[14],120%
same,"viability, T/C",[43],89.9%
same,"viability, T/C",[44],98.3%
same,"viability, T/C",[45],83.9%
same,"viability, T/C",[46],113%
same,"viability, T/C",[19],120%
same,"viability, T/C",[20],106%
same,"viability, T/C",[47],102%
same,"viability, T/C",[48],115%
same,"viability, T/C",[49],103%
same,"viability, T/C",[50],127%
same,"viability, T/C",[25],117%
same,"viability, T/C",[26],80%
CCCS(=O)(=O)Nc1ccc(F)c(C(=O)c2c[nH]c3ncc(-c4ccc(Cl)cc4)cc23)c1F + CC(C)NCC(C(=O)N1CCN(c2ncnc3c2C(C)CC3O)CC1)c1ccc(Cl)cc1,IC50,second compound 0.3 µM,> 100000 nM
same,IC50,second compound 0.949 µM,> 100000 nM
same,IC50,second compound 3 µM,> 100000 nM
same,IC50,second compound 9.49 µM,21800 nM
same,IC50,second compound 30 µM,6430 nM
same,"viability, T/C",[3],85.9%
same,"viability, T/C",[4],83.5%
same,"viability, T/C",[5],85.8%
same,"viability, T/C",[6],108%
same,"viability, T/C","second compound 0.3 µM, first compound 31.6 µM",69.5%
same,"viability, T/C","second compound 0.3 µM, first compound 100 µM",81.8%
same,"viability, T/C",[9],84.4%
same,"viability, T/C",[10],94.1%
same,"viability, T/C",[11],90.9%
same,"viability, T/C",[12],107%
same,"viability, T/C","second compound 0.949 µM, first compound 31.6 µM",53.6%
same,"viability, T/C","second compound 0.949 µM, first compound 100 µM",87%
same,"viability, T/C",[15],82.9%
same,"viability, T/C",[16],89.1%
same,"viability, T/C",[17],105%
same,"viability, T/C",[18],88.5%
same,"viability, T/C","second compound 3 µM, first compound 31.6 µM",54%
same,"viability, T/C","second compound 3 µM, first compound 100 µM",50.5%
same,"viability, T/C",[21],85.4%
same,"viability, T/C",[22],107%
same,"viability, T/C",[23],99.8%
same,"viability, T/C",[24],73.7%
same,"viability, T/C","second compound 9.49 µM, first compound 31.6 µM",39.9%
same,"viability, T/C","second compound 9.49 µM, first compound 100 µM",32.4%
same,"viability, T/C",[27],107%
same,"viability, T/C",[28],119%
same,"viability, T/C",[29],127%
same,"viability, T/C",[30],5.6%
same,"viability, T/C","second compound 30 µM, first compound 31.6 µM",5.46%
same,"viability, T/C","second compound 30 µM, first compound 100 µM",13.1%
